Data: article PMC12426935, “On-Cell Saturation Transfer Difference NMR Spectroscopy on Ion Channels: Characterizing Negative Allosteric Modulator Binding Interactions of P2X7” (Journal of the American Chemical Society, 2025)
Positions count from the first letter of the chain named. Like-named read-outs stand apart in the source and are kept apart here.

Columns and labels:
Assay type in all cases: cell-based
Settings in all cases: for IC50: n = 3
F88A hP2X7 = molecular target: T1, F88A hP2X7 (Homo sapiens, UniProt Q99572, F88A); test: fura-2 intracellular calcium assay on HEK-293 stable cell line expressing NAM-site mutant F88A hP2X7
T1 sequence (Q99572 1-595 F88A): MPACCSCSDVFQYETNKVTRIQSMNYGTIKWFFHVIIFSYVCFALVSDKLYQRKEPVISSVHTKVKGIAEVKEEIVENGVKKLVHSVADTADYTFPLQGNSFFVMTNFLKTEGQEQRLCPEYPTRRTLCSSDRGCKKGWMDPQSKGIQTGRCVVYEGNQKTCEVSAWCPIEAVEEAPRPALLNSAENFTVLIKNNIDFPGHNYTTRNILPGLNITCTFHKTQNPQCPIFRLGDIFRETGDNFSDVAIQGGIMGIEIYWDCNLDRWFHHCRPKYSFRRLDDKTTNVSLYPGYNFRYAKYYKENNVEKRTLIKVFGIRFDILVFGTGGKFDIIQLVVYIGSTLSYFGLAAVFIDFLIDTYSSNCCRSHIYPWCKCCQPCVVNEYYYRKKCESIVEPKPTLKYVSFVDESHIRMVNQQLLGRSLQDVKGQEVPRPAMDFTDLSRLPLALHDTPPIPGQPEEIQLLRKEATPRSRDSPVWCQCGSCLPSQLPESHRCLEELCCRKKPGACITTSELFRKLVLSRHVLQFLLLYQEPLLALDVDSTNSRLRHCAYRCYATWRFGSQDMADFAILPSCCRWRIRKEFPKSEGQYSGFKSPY
Method: (§1) Transfection was performed using lipofectamine 2000 (Fisher Scientific), and cells were subjected to Geneticin (800 μg/mL) selection for 2–3 weeks. This was followed by single cell cloning by limiting dilution in 96-well plates. Individual clones were selected for further study based on ATP-induced TO-PRO-3 uptake on a BD Cytoflex flow cytometer. Cell lines were maintained in DMEM:F12 media supplemented with 10% fetal bovine serum (PanBiotech), penicillin and streptomycin (Fisher Scientific) and kept in a humidified incubator with 5% CO2. Stable P2X7-expressing cells were kept under Geneticin selection at a concentration of 400 μg/mL. Passaging was performed twice weekly using 0.25% Trypsin-EDTA (Fisher Scientific).
(§2) P2X7 responses were measured by monitoring intracellular calcium responses using fura-2AM loaded cells. Cells were plated at 2–2.5 × 10^4 cells/well the day before experiments in 96-well plates (NUNC) coated with 50 μg/mL poly-D-lysine (Merck Millipore). A loading buffer containing 2 μM fura-2AM (HelloBio) and 250 μM sulfinpyrazone (Merck Millipore) in a low divalent buffer (145 mM NaCl, 5 mM KCl, 0.2 mM CaCl2, 10 mM HEPES, 13 mM glucose, pH 7.3) was added to cells for 45 min at 37 °C. After loading, the buffer was removed and replaced with calcium-containing extracellular solution (145 mM NaCl, 5 mM KCl, 2 mM CaCl2, 10 mM HEPES, 13 mM glucose, pH 7.3). Responses were measured using a Flexstation 3 plate reader (Molecular Devices) with dual excitation wavelengths of 340 and 380 nm and single emission wavelength of 510 nm. The sample interval was 3.5 s, and each well was recorded for 180 s. Fura-2 ratios were calculated in Softmax Pro v5.4; zero baseline was applied, and responses were measured as normalized area under the curve (AUC). Dose inhibition curves were plotted using GraphPad Prism v6 nonlinear regression (three parameter fit) and log IC50 values reported.

M105A hP2X7 = molecular target: T2, M105A hP2X7 (Homo sapiens, UniProt Q99572, M105A); test: fura-2 intracellular calcium assay on HEK-293 stable cell line expressing NAM-site mutant M105A hP2X7
T2 sequence (Q99572 1-595 M105A): T1 sequence (Q99572 1-595 F88A) with A88F, M105A
Method: as §1, §2

F103A hP2X7 = molecular target: T3, F103A hP2X7 (Homo sapiens, UniProt Q99572, F103A); test: fura-2 intracellular calcium assay on HEK-293 stable cell line expressing NAM-site mutant F103A hP2X7
T3 sequence (Q99572 1-595 F103A): T1 sequence (Q99572 1-595 F88A) with A88F, F103A
Method: as §1, §2

Structure (SMILES): O=C(NCC1(N2CCN(c3ccccc3)CC2)CCOCC1)c1cccnc1Sc1ccccc1 [JNJ-47965567]
- IC50 (F88A hP2X7; F88A hP2X7, agonist ATP, log IC50 ± standard error, read-out: Log IC50 (converted)): 121 nM
- IC50 (F88A hP2X7; F88A hP2X7, agonist ATP, mean in brackets, read-out: mean IC50): 125 nM
- IC50 (F88A hP2X7; F88A hP2X7, agonist BzATP, mean in brackets, read-out: mean IC50): 53.8 nM
- increase in IC50 at F88A relative to hP2X7 (F88A hP2X7; F88A hP2X7 vs hP2X7): 10 fold
- IC50 (M105A hP2X7; M105A hP2X7, agonist ATP, log IC50 ± standard error, read-out: Log IC50 (converted)): 45.6 nM
- IC50 (M105A hP2X7; M105A hP2X7, agonist ATP, mean in brackets, read-out: mean IC50): 45 nM
- IC50 (M105A hP2X7; M105A hP2X7, agonist BzATP, mean in brackets, read-out: mean IC50): 28.7 nM
- increase in IC50 at M105A-hP2X7 relative to hP2X7 (M105A hP2X7; M105A hP2X7 vs hP2X7): less than 5 fold
- IC50 (F103A hP2X7; F103A hP2X7, agonist ATP, log IC50 ± standard error, read-out: Log IC50 (converted)): 155 nM
- IC50 (F103A hP2X7; F103A hP2X7, agonist ATP, mean in brackets, read-out: mean IC50): 161 nM
- IC50 (F103A hP2X7; F103A hP2X7, agonist BzATP, mean in brackets, read-out: mean IC50): 59.1 nM
- loss in potency (increase in IC50) at F103A relative to WT hP2X7 (F103A hP2X7; F103A hP2X7 vs hP2X7): 10 fold
